Assay results taken from patent publication US11225491B2, “Thiazolo-pyrimidine HIV-1 reverse transcriptase inhibitor, preparation method therefor, and uses thereof” (priority 2018, dated 2022).
Where two headings read alike, the source gives them in different places.

Legend:
WT HIV-1 strain (IIIB) = test: Anti-HIV activity in MT-4 cells, MTT method, WT strain IIIB; format: cell-based; conditions: for SI IIIB: selectivity index, ratio of CC50/EC50, strain IIIB
[1] = system: HIV-1 K103N+Y181C (RES056); test: microbe, parasite or virus in culture; format: cell-based; conditions: for EC50: Human immunodeficiency virus 1, MT4, read-out: EC50 RES056; for SI RES056: selectivity index, ratio of CC50/EC50, strain RES056
[2] = system: mutant HIV-1 strain L100I; test: microbe, parasite or virus in culture; format: cell-based; conditions: Human immunodeficiency virus 1, MT4, read-out: EC50 L100I
[3] = system: mutant HIV-1 strain Y181C; test: microbe, parasite or virus in culture; format: cell-based; conditions: Human immunodeficiency virus 1, MT4, read-out: EC50 Y181C
[4] = system: mutant HIV-1 strain Y188L; test: microbe, parasite or virus in culture; format: cell-based; conditions: Human immunodeficiency virus 1, MT4, read-out: EC50 Y188L
[5] = system: mutant HIV-1 strain E138K; test: microbe, parasite or virus in culture; format: cell-based; conditions: Human immunodeficiency virus 1, MT4, read-out: EC50 E138K
[6] = system: mutant HIV-1 strain F227L + V106A; test: microbe, parasite or virus in culture; format: cell-based; conditions: Human immunodeficiency virus 1, MT4, read-out: EC50 F227L + V106A
in vitro = conditions: human
[7] = Cytotoxicity in mock-infected MT-4 cells, MTT method; conditions: human
[8] = system: mutant HIV-1 strain K103N; test: microbe, parasite or virus in culture; format: cell-based; conditions: Human immunodeficiency virus 1, MT4, read-out: EC50 K103N
[9] = Human immunodeficiency virus 1, MT4, 50% protection of MT-4 cell cultures against HIV-1-induced cytopathic effect, MTT method, strain IIIB, read-out: EC50 IIIB

| SMILES | EC50 (WT HIV-1 strain (IIIB); [9]) [nM] | EC50 [1] [nM] | EC50 [2] [nM] | EC50 [3] [nM] | EC50 [4] [nM] | EC50 [5] [nM] | EC50 [6] [nM] | CC50 at 5 days (in vitro) [nM] | EC50 (WT HIV-1 strain (IIIB); Human immunodeficiency virus 1, IIIB, MT4, read-out: EC50 IIIB) [nM] | CC50 at 5 days [7] [nM] | SI IIIB (WT HIV-1 strain (IIIB)) | SI RES056 [1] | EC50 [8] [nM] |
| --- | --- | --- | --- | --- | --- | --- | --- | --- | --- | --- | --- | --- | --- |
| Cc1cc(C#N)cc(C)c1Oc1nc(Nc2ccc(C#N)cc2)nc(N)c1Br [ETR, Etravirine, reference compound] | 5.1 ± 0.8 | 45.4 ± 15.5 | 6 ± 1.5 | 14.5 ± 8.2 | 20.4 ± 8.6 | 9.7 ± 6.9 | 19.7 ± 7.3 | > 4590 | – | – | – | – | – |
| Cc1ccnc2c1NC(=O)c1cccnc1N2C1CC1 [NVP, Nevirapine, reference compound] | – | > 9510 | – | – | – | – | – | – | 163 ± 41.2 | > 9510 | – | – | – |
| Cc1cc(C#N)cc(C)c1Oc1nc(NC2CCN(Cc3ccc(S(N)(=O)=O)cc3)CC2)nc2ncsc12 [SZ1] | 2.2 ± 0.9 | 26.1 ± 1.5 | 7.8 ± 0.2 | 6.7 ± 1.2 | 11.4 ± 2.3 | 6.5 ± 1.5 | 18.8 ± 4.5 | 25100 ± 749 | – | – | 11071 | 961 | 3.9 ± 1.9 |
| CNS(=O)(=O)c1ccc(CN2CCC(Nc3nc(Oc4c(C)cc(C#N)cc4C)c4scnc4n3)CC2)cc1 [SZ2] | 4.8 ± 0.1 | 19.4 ± 13.1 | 8.7 ± 0.3 | 7.3 ± 0.1 | 14 ± 2 | 9.2 ± 0.7 | 22.6 ± 3.8 | 13700 ± 3470 | – | – | 2828 | 710 | 5.1 ± 1 |
| Cc1cc(C#N)cc(C)c1Oc1nc(NC2CCN(Cc3ccc(S(=O)(=O)NC4CC4)cc3)CC2)nc2ncsc12 [SZ3] | 5 ± 0.2 | 41.3 ± 5.2 | – | – | – | – | – | 23200 ± 4520 | – | – | 4564 | 561 | – |
| Cc1cc(C#N)cc(C)c1Oc1nc(NC2CCN(Cc3ccc(S(=O)(=O)N4CCOCC4)cc3)CC2)nc2ncsc12 [SZ4] | 3.7 ± 0.8 | 94.4 ± 0.5 | – | – | – | – | – | 17600 ± 2370 | – | – | 4665 | 187 | – |
| Cc1cc(C#N)cc(C)c1Oc1nc(NC2CCN(Cc3ccc(C(N)=O)cc3)CC2)nc2ncsc12 [SZ5] | > 15600 | > 15600 | – | – | – | – | – | 15500 ± 2840 | – | – | <1 | <1 | – |
| Cc1cc(C#N)cc(C)c1Oc1nc(NC2CCN(Cc3ccc(S(C)(=O)=O)cc3)CC2)nc2ncsc12 [SZ6, 3,5-dimethyl-4-((5-((1-(4-(methylsulfonyl)benzyl)piperidin-4-yl)amino)thiazolo[4,5-d]pyrimidin-7-yl)oxy)benzonitrile] | 2.2 ± 0.6 | 27.4 ± 0.3 | 3.2 ± 0.7 | 7 ± 0.9 | 10.7 | 6.1 ± 1.1 | 15.4 ± 2.3 | 10900 ± 2750 | – | – | 4816 | 400 | 3.8 ± 2.8 |
| Cc1cc(C#N)cc(C)c1Oc1nc(NC2CCN(Cc3ccncc3)CC2)nc2ncsc12 [SZ7, 3,5-dimethyl-4-((5-((1-(pyridin-4-ylmethyl)piperidin-4-yl)amino)thiazolo[4,5-d]pyrimidin-7-yl)oxy)benzonitrile] | 1.8 ± 0.4 | 24.7 ± 1.9 | 5.6 ± 2.2 | 5.8 ± 2.2 | 7.7 ± 1 | 5.5 ± 1.2 | 32.9 ± 23.8 | 30300 ± 760 | – | – | 16818 | 1227 | 1.9 ± 0.6 |
| Cc1cc(C#N)cc(C)c1Oc1nc(NC2CCN(Cc3ccc([N+](=O)[O-])cc3)CC2)nc2ncsc12 [SZ8, 3,5-dimethyl-4-((5-((1-(4-nitrobenzyl)piperidin-4-yl)amino)thiazolo[4,5-d]pyrimidin-7-yl)oxy)benzonitrile] | 3.4 ± 0.2 | 129 ± 4.5 | – | – | – | – | – | 5170 ± 134 | – | – | 1482 | 40 | – |
| Cc1cc(C#N)cc(C)c1Oc1nc(NC2CCN(Cc3cccc(C(N)=O)c3)CC2)nc2ncsc12 [SZ9] | 1.3 | 559 ± 8.5 | – | – | – | – | – | 27300 ± 965 | – | – | 20099 | 49 | – |
| Cc1cc(C#N)cc(C)c1Oc1nc(NC2CCN(Cc3ccc(S(N)(=O)=O)cc3)CC2)nc2scnc12 [TZ1] | 1.6 ± 0.2 | 18.3 ± 2.3 | 9.6 ± 1.5 | 6.5 ± 1 | 10.8 ± 0.6 | 7.9 ± 0.1 | 16 ± 4.6 | 23200 ± 1750 | – | – | 14194 | 1265 | 1.9 ± 0.1 |
| Cc1cc(C#N)cc(C)c1Oc1nc(NC2CCN(Cc3ccc(C(N)=O)cc3)CC2)nc2scnc12 [TZ2] | 1.6 ± 0.1 | 28.1 ± 13 | 6.3 ± 2.8 | 5.1 ± 0.1 | 7.2 ± 0.2 | 5.2 ± 0.8 | 20.3 ± 2.6 | 27100 ± 1300 | – | – | 16412 | 965 | 1.6 ± 0.4 |
| Cc1cc(C#N)cc(C)c1Oc1nc(NC2CCN(Cc3ccc(S(C)(=O)=O)cc3)CC2)nc2scnc12 [TZ3, 3,5-dimethyl-4-((5-((1-(4-(methylsulfonyl)benzyl)piperidin-4-yl)amino)thiazolo[5,4-d]pyrimidin-7-yl)oxy)benzonitrile] | 2.3 ± 0.7 | 18.1 ± 1.1 | 5.6 ± 0.7 | 7.5 ± 0.6 | 7.1 ± 0.2 | 6.6 ± 0.1 | 15.2 ± 3.4 | 14300 ± 5500 | – | – | 6212 | 791 | 3.3 ± 0.3 |
| Cc1cc(C#N)cc(C)c1Oc1nc(NC2CCN(Cc3ccncc3)CC2)nc2scnc12 [TZ4, 3,5-dimethyl-4-((5-((1-(pyridin-4-ylmethyl)piperidin-4-yl)amino)thiazolo[5,4-d]pyrimidin-7-yl)oxy)benzonitrile] | 2.7 | 26.8 ± 0.1 | 13.7 ± 7.1 | 5.8 ± 0.1 | 6.6 ± 1 | 6.5 ± 0.3 | 30.9 ± 6.2 | 28700 ± 489 | – | – | 10447 | 1074 | 3.3 ± 2.3 |
| Cc1cc(C#N)cc(C)c1Oc1nc(NC2CCN(Cc3ccc([N+](=O)[O-])cc3)CC2)nc2scnc12 [TZ5, 3,5-dimethyl-4-((5-((1-(4-nitrobenzyl)piperidin-4-yl)amino)thiazolo[5,4-d]pyrimidin-7-yl)oxy)benzonitrile] | 8.2 ± 1.9 | 126 ± 16 | – | – | – | – | – | 5680 ± 423 | – | – | 687 | 45 | – |
| Cc1cc(C#N)cc(C)c1Oc1nc(NC2CCN(Cc3cccc(C(N)=O)c3)CC2)nc2scnc12 [TZ6] | 3 ± 0.6 | 222 ± 47 | – | – | – | – | – | 28800 ± 634 | – | – | 9565 | 130 | – |
